Measured values as given in patent publication US7101872B2, “Farnesyl dibenzodiazepinone, and processes for its production” (Ecopia BioSciences, Inc., priority 2003, dated 2006).

How the values were obtained:
Assay in all cases: NCI panel SRB growth inhibition
Assay type in all cases: cell-based
SK-OV-3 = settings: Homo sapiens, SK-OV-3, Ovarian, 48 h
Protocol: (§1) The operation of this unique screen utilizes […] different human tumor cell lines, representing leukemia, melanoma and cancers of the lung, colon, brain, ovary, breast, prostate, and kidney.
(§2) Culture conditions and plating: The human tumor cell lines of the cancer-screening panel were grown in RPMI 1640 medium containing 5% fetal bovine serum and 2 mM L-glutamine. For a typical screening experiment, cells were inoculated into 96 well microtiter plates in 100 μL at plating densities ranging from 5,000 to 40,000 cells/well depending on the doubling time of individual cell lines (Table 5). After cell inoculation, the microtiter plates were incubated at 37° C., 5% CO2, 95% air and 100% relative humidity for 24 h prior to addition of experimental drugs. After 24 h, two plates of each cell line were fixed in situ with TCA, to represent a measurement of the cell population for each cell line at the time of drug addition (Tz). Evaluation of inhibitory activity on cell proliferation: ECO-04601 was provided as a lyophilized powder with an estimated purity of 90+%. The compound was stored at −20° C. until day of use. ECO-04601 was solubilized in dimethyl sulfoxide at 400-fold the desired final maximum test concentration. At the time of drug addition, an aliquot of frozen concentrate was thawed and diluted to twice the desired final maximum test concentration with complete medium containing 50 μg/mL gentamicin. Additional four, 10-fold or Y2 log serial dilutions were made to provide a total of five drug concentrations plus control. Aliquots of 100 μl of these different drug dilutions were added to the appropriate microtiter wells already containing 100 μl of medium, resulting in the required final drug concentrations (8.0×10^−5 M to 8.0×10^−9 M).
(§3) Following drug addition, the plates were incubated for an additional 48 h at 37° C., 5% CO2, 95% air, and 100% relative humidity. For adherent cells, the assay was terminated by the addition of cold TCA. Cells were fixed in situ by the gentle addition of 50 μl of cold 50% (w/v) TCA (final concentration, 10% TCA) and incubated for 60 minutes at 4° C. Supernatants were discarded, and the plates were washed five times with tap water and air-dried. Sulforhodamine B (SRB) solution (100 μl) at 0.4% (w/v) in 1% acetic acid was added to each well, and plates were incubated for 10 minutes at room temperature. After staining, unbound dye was removed by washing five times with 1% acetic acid and the plates were air-dried. Bound stain was subsequently solubilized with 10 mM trizma base, and the absorbance was read on an automated plate reader at a wavelength of 515 nm. For suspension cells, the methodology was the same except that the assay was terminated by fixing settled cells at the bottom of the wells by gently adding 50 μl of 80% TCA (final concentration, 16% TCA).
(§4) The growth inhibitory activity of ECO-04601 was measured by NCI utilizing the GI50 value, rather than the classical IC50 value.

NCI-H226 = settings: Homo sapiens, NCI-H226, Non-Small Cell Lung, 48 h
Protocol: as §1, §2, §3, §4

HS 578T = settings: Homo sapiens, Breast, 48 h
Protocol: as §1, §2, §3, §4

HT29 = settings: Homo sapiens, HT-29, HT29, Colon, 48 h
Protocol: as §1, §2, §3, §4

M14 = settings: Homo sapiens, M14, Melanoma, 48 h
Protocol: as §1, §2, §3, §4

T-47D = settings: Homo sapiens, T47D, Breast, 48 h
Protocol: as §1, §2, §3, §4

SK-MEL-28 = settings: Homo sapiens, SK-MEL-28, Melanoma, 48 h
Protocol: as §1, §2, §3, §4

SW-620 = settings: Homo sapiens, SW-620, Colon, 48 h
Protocol: as §1, §2, §3, §4

SF-268 = settings: Homo sapiens, SF-268, CNS, 48 h
Protocol: as §1, §2, §3, §4

OVCAR-3 = settings: Homo sapiens, OVCAR-3, Ovarian, 48 h
Protocol: as §1, §2, §3, §4

786-0 = settings: Homo sapiens, 786-0, Renal, 48 h
Protocol: as §1, §2, §3, §4

U251 = settings: Homo sapiens, U-251, U251, CNS, 48 h
Protocol: as §1, §2, §3, §4

SNB-75 = settings: Homo sapiens, SNB-75, CNS, 48 h
Protocol: as §1, §2, §3, §4

NCI/ADR-RES = settings: Homo sapiens, Breast, 48 h
Protocol: as §1, §2, §3, §4

OVCAR-5 = settings: Homo sapiens, OVCAR-5, Ovarian, 48 h
Protocol: as §1, §2, §3, §4

HCT-15 = settings: Homo sapiens, HCT-15, Colon, 48 h
Protocol: as §1, §2, §3, §4

A498 = settings: Homo sapiens, A498, Renal, 48 h
Protocol: as §1, §2, §3, §4

ACHN = settings: Homo sapiens, Renal, 48 h
Protocol: as §1, §2, §3, §4

OVCAR-4 = settings: Homo sapiens, OVCAR-4, Ovarian, 48 h
Protocol: as §1, §2, §3, §4

SNB-19 = settings: Homo sapiens, SNB-19, CNS, 48 h
Protocol: as §1, §2, §3, §4

BT-549 = settings: Homo sapiens, BT-549, Breast, 48 h
Protocol: as §1, §2, §3, §4

RXF 393 = settings: Homo sapiens, RXF 393, Renal, 48 h
Protocol: as §1, §2, §3, §4

NCI-H460 = settings: Homo sapiens, NCI-H460, Non-Small Cell Lung, 48 h
Protocol: as §1, §2, §3, §4

SF-539 = settings: Homo sapiens, SF-539, CNS, 48 h
Protocol: as §1, §2, §3, §4

RPMI-8226 = settings: Homo sapiens, RPMI-8226, Leukemia, 48 h
Protocol: as §1, §2, §3, §4

SK-MEL-2 = settings: Homo sapiens, SK-MEL-2, Melanoma, 48 h
Protocol: as §1, §2, §3, §4

Question: With CC(C)=CCC/C(C)=C/CC/C(C)=C/CN1C(=O)c2cccc(O)c2Nc2c(O)cc(O)cc21 [ECO-04601, 10-farnesyl-4,6,8-trihydroxy-dibenzodiazepin-11-one] as the molecule, how does the GI50 (SK-OV-3) read?
Answer: Its GI50 is 4 µM.

Question: What about the GI50 (NCI-H226) of the same molecule?
Answer: The GI50 was 2 µM.

Question: What about the GI50 (HS 578T) of the same molecule?
Answer: The GI50 was 2.76 µM.

Question: And the GI50 (HT29)?
Answer: Its GI50 is 20.7 µM.

Question: And the GI50 (M14)?
Answer: Its GI50 is 4.57 µM.

Question: What about the GI50 (T-47D) of the same molecule?
Answer: Its GI50 is 0.77 µM.

Question: And the GI50 (SK-MEL-28)?
Answer: The GI50 was 11.6 µM.

Question: What about the GI50 (SW-620) of the same molecule?
Answer: The GI50 was 2.72 µM.

Question: What about the GI50 (SF-268) of the same molecule?
Answer: The GI50 was 4.94 µM.

Question: What about the GI50 (OVCAR-3) of the same molecule?
Answer: Its GI50 is 13.5 µM.

Question: And the GI50 (786-0)?
Answer: Its GI50 is 6.99 µM.

Question: What about the GI50 (U251) of the same molecule?
Answer: Its GI50 is 2.19 µM.

Question: What about the GI50 (SNB-75) of the same molecule?
Answer: The GI50 was 7.71 µM.

Question: And the GI50 (NCI/ADR-RES)?
Answer: The GI50 was 18.3 µM.

Question: And the GI50 (OVCAR-5)?
Answer: Its GI50 is 2.81 µM.

Question: What about the GI50 (HCT-15) of the same molecule?
Answer: Its GI50 is 9.73 µM.

Question: And the GI50 (A498)?
Answer: The GI50 was 22.3 µM.

Question: What about the GI50 (ACHN) of the same molecule?
Answer: Its GI50 is 3.1 µM.

Question: What about the GI50 (OVCAR-4) of the same molecule?
Answer: Its GI50 is 9.67 µM.

Question: And the GI50 (SNB-19)?
Answer: Its GI50 is 2.9 µM.

Question: What about the GI50 (BT-549) of the same molecule?
Answer: Its GI50 is 0.11 µM.

Question: And the GI50 (RXF 393)?
Answer: Its GI50 is 7.71 µM.

Question: And the GI50 (NCI-H460)?
Answer: Its GI50 is 13.6 µM.

Question: And the GI50 (SF-539)?
Answer: The GI50 was 0.0075 µM.

Question: What about the GI50 (RPMI-8226) of the same molecule?
Answer: Its GI50 is 3.15 µM.

Question: What about the GI50 (SK-MEL-2) of the same molecule?
Answer: Its GI50 is 25 µM.
